Data reported in patent US20220016101A1 (ACADIA Pharmaceuticals Inc., priority 2018, published 2022).

Tested on: patients with MDD and an inadequate response to an SSRI or SNRI
Assay: Massachusetts General Hospital Sexual Functioning Index (MGH-SFI), Study ACP-103-042
Assay type: in vivo, human
Conditions: for MGH-SFI 01: Interest in Sex, Change from Baseline to Week 5 Mean (SE) / MGH-SFI 01: Interest in Sex, Change from Baseline to Week 5 Median / MGH-SFI 01: Interest in Sex, Week 5 Mean (SE) / MGH-SFI 01: Interest in Sex, Week 5 Median / MGH-SFI 01: Interest in Sex, Effect Size (Cohen's d): subgroup >50 years
Source text: “Massachusetts General Hospital Sexual Functioning Index (MGH-SFI)” is described, for instance, in Labbate and Lare, 2001, Psychother Psychosom. 70(4):221-225. This is a patient facing questionnaire that quantifies sexual dysfunction into 5 functional domains (“interest in sex,” “sexual arousal,” “ability to achieve orgasm,” “ability to maintain erection” (males only), and “sexual satisfaction”). Patients rate each item using a 6-point scale ranging from 1 (good function) to 6 (poor function). High scores indicate poor sexual functioning. […] The determination of the subject's status and eligibility for randomization in Stage 2 was made in a double-blind manner. […] Sexual functioning was assessed using the Massachusetts General Hospital Sexual Functioning Index or MGH-SFI (Labbate and Lare, 2001, Psychother Psychosom. 70(4):221-225). This is a patient facing questionnaire that quantifies sexual dysfunction into 5 functional domains (“interest in sex,” “sexual arousal,” “ability to achieve orgasm,” “ability to maintain erection” [malesonly], and “sexual satisfaction”). Patients rate each item using a 6-point scale ranging from 1 (good function) to 6 (poor function). The time frame for this scale is the past month. This scale was administered at baseline and Week 5 in both stages of the study. High scores indicate poor sexual functioning. In ACP-103-042 the mean scores for MGH-SFI at Baseline was calculated over all 5 domains for males and the 4 domains for females. For MGH-SFI (follow-up version) at Study Weeks 5 and 10, the mean was calculated in the same way as MGH-SFI at Baseline. […] Tables 10-27 summarize the detailed data of MGH-SFI individual items of the overall study group (Tables 10-15), the subgroup of age of <=50 (Tables 16-21) and the subgroup of age of >50 (Table 21-26). In Tables 9-26, ANCOVA=analysis of covariance; OC=observed cases; LSM=least squares mean; CI=confidence interval; SD=standard deviation; SE=standard error. Stage 1: Baseline=Study Week 0, Week 5=Study Week 5; Stage 2: Baseline=Study Week 5, Week 5=Study Weeks 10. LSM from the stage-specific ANCOVA analysis with the change from baseline as the outcome, treatment group as a factor, and the corresponding Baseline value as a covariate. 2-sided p-value for treatment difference from the stage-specific ANCOVA analysis. An treatment effect size (Cohen's d) is calculated using the formula: Effect Size=Least Square mean difference between PIM and PBO/SD. The corresponding 95% confidence interval for an effect size is calculated based on the theoretical probability distribution of the effect size. […] Tables 10-15 and 28-38 summarize the detailed data of MGH-SFI individual items of the overall study group (Tables 10-15), the female subgroup (Tables 33-37) and the male subgroup (Table 38-43). An treatment effect size (Cohen's d) is calculated using the formula: Effect Size=Least Square mean difference between PIM and PBO/SD. The corresponding 95% confidence interval for an effect size is calculated based on the theoretical probability distribution of the effect size. In Tables 10-15 and 28-38, ANCOVA=analysis of covariance; OC=observed cases; LSM=least squares mean; CI=confidence interval; SD=standard deviation; SE=standard error. Stage 1: Baseline=Study Week 0, Week 5=Study Week 5; Stage 2: Baseline=Study Week 5, Week 5=Study Weeks 10. LSM from the stage-specific ANCOVA analysis with the change from baseline as the outcome, treatment group as a factor, and the corresponding Baseline value as a covariate. 2-sided p-value for treatment difference from the stage-specific ANCOVA analysis. An treatment effect size (Cohen's d) is calculated using the formula: Effect Size=Least Square mean difference between PIM and PBO/SD. The corresponding 95% confidence interval for an effect size is calculated based on the theoretical probability distribution of the effect size.

[1] = subgroup >50 years old, Stage 1, PIM 34 mg vs placebo
[2] = subgroup >50 years old, Stage 2, PIM 34 mg
[3] = subgroup >50 years old, Stage 2, PIM 34 mg vs placebo

Structure (SMILES): CC(C)COc1ccc(CNC(=O)N(Cc2ccc(F)cc2)C2CCN(C)CC2)cc1 [pimavanserin, N-(4-Fluorophenylmethyl)-N-(1-methylpiperidin-4-yl)-N′-(4-(2-methylpropyloxy)phenylmethyl)carbamide]
- MGH-SFI 04: (Men) Ability to Get and Maintain an Erection, Effect Size (Cohen's d) [1]: −0.568
- MGH-SFI 05: Overall Sexual Satisfaction, Effect Size (Cohen's d) [1]: 0.757
- MGH-SFI 06: Overall Improvement Since Last Medication Change, Effect Size (Cohen's d) [1]: 0.531
- MGH-SFI 02: Ability to Get Sexually Aroused or Excited, Change from Baseline to Week 5 Mean (SE) [2]: −0.4 (0.21)
- MGH-SFI 02: Ability to Get Sexually Aroused or Excited, Change from Baseline to Week 5 Median [2]: 0.0
- MGH-SFI 02: Ability to Get Sexually Aroused or Excited, Week 5 Mean (SE) [2]: 4.4 (0.46)
- MGH-SFI 02: Ability to Get Sexually Aroused or Excited, Week 5 Median [2]: 5.0
- MGH-SFI 03: Ability to Achieve Orgasm, Change from Baseline to Week 5 Mean (SE) [2]: −0.5 (0.27)
- MGH-SFI 03: Ability to Achieve Orgasm, Change from Baseline to Week 5 Median [2]: 0.0
- MGH-SFI 03: Ability to Achieve Orgasm, Week 5 Mean (SE) [2]: 4.5 (0.54)
- MGH-SFI 03: Ability to Achieve Orgasm, Week 5 Median [2]: 5.0
- MGH-SFI 04: (Men) Ability to Get and Maintain an Erection, Change from Baseline to Week 5 Mean (SE) [2]: −1.6 (0.51)
- MGH-SFI 04: (Men) Ability to Get and Maintain an Erection, Change from Baseline to Week 5 Median [2]: −2.0
- MGH-SFI 04: (Men) Ability to Get and Maintain an Erection, Week 5 Mean (SE) [2]: 2.8 (0.92)
- MGH-SFI 04: (Men) Ability to Get and Maintain an Erection, Week 5 Median [2]: 2.0
- MGH-SFI 05: Overall Sexual Satisfaction, Change from Baseline to Week 5 Mean (SE) [2]: −0.8 (0.39)
- MGH-SFI 05: Overall Sexual Satisfaction, Change from Baseline to Week 5 Median [2]: 0.0
- MGH-SFI 05: Overall Sexual Satisfaction, Week 5 Mean (SE) [2]: 4.2 (0.58)
- MGH-SFI 05: Overall Sexual Satisfaction, Week 5 Median [2]: 5.0
- MGH-SFI 06: Overall Improvement Since Last Medication Change, Week 5 Mean (SE) [2]: 3.5 (0.40)
- MGH-SFI 06: Overall Improvement Since Last Medication Change, Week 5 Median [2]: 4.0
- MGH-SFI 02: Ability to Get Sexually Aroused or Excited, Effect Size (Cohen's d) [3]: −0.075
- MGH-SFI 03: Ability to Achieve Orgasm, Effect Size (Cohen's d) [3]: 0.169
- MGH-SFI 04: (Men) Ability to Get and Maintain an Erection, Effect Size (Cohen's d) [3]: 1.174
- MGH-SFI 05: Overall Sexual Satisfaction, Effect Size (Cohen's d) [3]: 0.555
- MGH-SFI 06: Overall Improvement Since Last Medication Change, Effect Size (Cohen's d) [3]: 0.406
- MGH-SFI 01: Interest in Sex, Change from Baseline to Week 5 Mean (SE) (Stage 1, PIM 34 mg): −1.0 (0.24)
- MGH-SFI 01: Interest in Sex, Change from Baseline to Week 5 Median (Stage 1, PIM 34 mg): −1.0
- MGH-SFI 01: Interest in Sex, Week 5 Mean (SE) (Stage 1, PIM 34 mg): 3.9 (0.32)
- MGH-SFI 01: Interest in Sex, Week 5 Median (Stage 1, PIM 34 mg): 4.0
- MGH-SFI 01: Interest in Sex, Effect Size (Cohen's d) (Stage 1, PIM 34 mg vs placebo): 0.649
- MGH-SFI 01: Interest in Sex, Change from Baseline to Week 5 Mean (SE) (Stage 2, PIM 34 mg): −0.6 (0.24)
- MGH-SFI 01: Interest in Sex, Change from Baseline to Week 5 Median (Stage 2, PIM 34 mg): 0.0
- MGH-SFI 01: Interest in Sex, Week 5 Mean (SE) (Stage 2, PIM 34 mg): 4.4 (0.45)
- MGH-SFI 01: Interest in Sex, Week 5 Median (Stage 2, PIM 34 mg): 5.0
- MGH-SFI 01: Interest in Sex, Effect Size (Cohen's d) (Stage 2, PIM 34 mg vs placebo): 0.468
